Several values for one entry are separate records, joined by “and”; a condition that tells them apart may be missing. Equal values may be shown once.
How the values were obtained:
Format in all cases: in vivo, human
[1] = system: patients with narcolepsy type 1 (NT1); assay: Sleep latency in Maintenance of Wakefulness Test (MWT), single dose (Cohorts 5, 6, 7); conditions: for average sleep latency in MWT, mean (SD): NT1 (placebo 2.88); for Average Sleep Latency in MWT: Cohort 5, 6, 7
Procedure: In Part 2, NT1 patients received a single dose of Compound A or placebo administered as a continuous IV infusion over a 9-hour period during the day. A 40-minute Maintenance of Wakefulness Test (MWT) was conducted 4 times during the continuous IV infusion to assess effects on wakefulness in soporific conditions at 2, 4, 6 and 8 hours from start of infusion. Three cohorts of patients were enrolled (n=14 total).
The average sleep latency in the Maintenance Wakefulness Test (MWT)
Sleep related parameters in the MWT (sleep latency (SL) in each session).
The pharmacodynamics (PD) for sleepiness is shown in FIG. 8, which depicts the average post-dose MWT sleep latency for NT1 patients overall all dose time points. Due to the crossover design, some subjects in the placebo group were the same as some subjects in 5 mg-44.8 mg group.

patients with NT1 [2] = assay: Epworth Sleepiness Scale (ESS), multiple dose (Cohorts B1, B2); conditions: for ESS Change from Baseline, Median / ESS Observed Value, Median: Day 7; for ESS Observed Value, Mean: Day 7 (placebo 16.3); for ESS Change from Baseline, Mean: Day 7 (placebo −0.3)
Procedure: The purpose of the study was to evaluate the safety, tolerability, pharmacokinetics and pharmacodynamics of Compound A after multiple IV administration in patients with NT1. NT1 patients were evaluated in Cohort B1 and B2 (Table 19). Compound A or placebo were administered via IV infusion over 9 hours once daily for 7 days. A total of 13 patients with NT1 were treated with Compound A or placebo (4, 4, and 5 subjects in the placebo, Compound A 11 mg, and Compound A 44 mg groups, respectively). In this part, potential efficacy of Compound A was evaluated with MWT, ESS, KSS, night-time PSG (NPSG), cataplexy frequency assessment, and PGI-C as an exploratory PD assessment.

patients with NT1 [3] = assay: PVT, multiple dose (Cohorts B1, B2); conditions: 9 hours postdose

COC(=O)N1CCC[C@H](NS(C)(=O)=O)[C@@H]1CO[C@H]1CC[C@@H](c2ccccc2)CC1 [Compound A, methyl (2R,3S)-3-((methylsulfonyl)amino)-2-(((cis-4-phenylcyclohexyl)oxy)methyl)piperidine-1-carboxylate]
average sleep latency in MWT, LS mean difference (95% CI) minus placebo ([1]; 5 mg): 18.792 (11.987, 25.596) min
average sleep latency in MWT, mean (SD) ([1]; 5 mg single 9 h IV infusion): 22.38 (10.125) min and 22.4 min and 22.38 min
Sleep latency in MWT by visit, Mean ([1]; 5 mg, 10:00 (infusion start 7:45)): 25.25 min
Sleep latency in MWT by visit, Mean ([1]; 5 mg, 12:00): 29.75 min
Sleep latency in MWT by visit, Mean ([1]; 5 mg, 14:00): 8.92 min
Sleep latency in MWT by visit, Mean ([1]; 5 mg, 16:00): 25.58 min
average sleep latency in MWT, LS mean difference (95% CI) minus placebo ([1]; 11.2 mg): 36.063 (27.729, 44.396) min
subjects achieving the maximum sleep latency (40 min) in MWT ([1]; 11.2 mg): 3 out of 4
average sleep latency in MWT, mean (SD) ([1]; 11.2 mg single 9 h IV infusion): 37.59 (4.813) min and 37.6 min and 37.59 min
Sleep latency in MWT by visit, Mean ([1]; 11.2 mg, 10:00): 37.38 min
Sleep latency in MWT by visit, Mean ([1]; 11.2 mg, 14:00): 33.00 min
Sleep latency in MWT by visit, Mean ([1]; 11.2 mg, 16:00): 40.00 min
average sleep latency in MWT, LS mean difference (95% CI) minus placebo ([1]; 44.8 mg): 36.662 (27.344, 45.979) min
average sleep latency in MWT, mean (SD) ([1]; 44.8 mg single 9 h IV infusion): 40.00 (0.000) min and 40 min
subjects achieving the maximum sleep latency (40 min) in MWT ([1]; 44.8 mg, all four 40-min trials): 4 out of 4
Sleep latency in MWT by visit, Mean ([1]; 44.8 mg, 10:00): 40.00 min
Sleep latency in MWT by visit, Mean ([1]; 44.8 mg, 12:00): 40.00 min
Sleep latency in MWT by visit, Mean ([1]; 44.8 mg, 14:00): 40.00 min
Sleep latency in MWT by visit, Mean ([1]; 44.8 mg, 16:00): 40.00 min
effect on wakefulness as measured by time to sleep onset on the MWT ([1]; 5, 11.2, 44.8 mg, NT1 patients): clear dose dependent effect
Average Sleep Latency in MWT ([1]; Cmpd A 5 mg, Mean): 22.38 min
Average Sleep Latency in MWT ([1]; Cmpd A 5 mg, Median): 21.69 min
Average Sleep Latency in MWT ([1]; Cmpd A 11.2 mg, Mean): 37.59 min
Average Sleep Latency in MWT ([1]; Cmpd A 11.2 mg, Median): 40.00 min
Average Sleep Latency in MWT ([1]; Cmpd A 44.8 mg, Mean): 40.00 min
Average Sleep Latency in MWT ([1]; Cmpd A 44.8 mg, Median): 40.00 min
mean sleep latency in the lunch session (14:00) ([1]; higher dose groups of Compound A): over 30 min
ESS Change from Baseline, Median (patients with NT1 [2]; 11 mg): −9.5
ESS Observed Value, Median (patients with NT1 [2]; 11 mg): 8.5
ESS Observed Value, Mean (patients with NT1 [2]; 11 mg): 9.8
ESS Change from Baseline, Mean (patients with NT1 [2]; 11 mg): −8.3
ESS Change from Baseline, Median (patients with NT1 [2]; 44 mg): −18.0
ESS Observed Value, Median (patients with NT1 [2]; 44 mg): 0.0
ESS Observed Value, Mean (patients with NT1 [2]; 44 mg): 0.0
ESS Change from Baseline, Mean (patients with NT1 [2]; 44 mg): −18.6
PVT, mean change from baseline in the number of lapses (patients with NT1 [3]; 11 mg, Day 1 (placebo 10.5)): −9.3
PVT, mean change from baseline in mean duration of the reciprocal 10% slowest reaction time (1/RT) (patients with NT1 [3]; 11 mg, Day 1 (placebo −0.49)): 0.88
PVT, mean change from baseline in the number of lapses (patients with NT1 [3]; 11 mg, Day 7 (placebo 11.8)): −14.8
PVT, mean change from baseline in mean duration of the reciprocal 10% slowest reaction time (1/RT) (patients with NT1 [3]; 11 mg, Day 7 (placebo −0.73)): 1.27
PVT, mean change from baseline in the number of lapses (patients with NT1 [3]; 44 mg, Day 1 (placebo 10.5)): −12.8
PVT, mean change from baseline in mean duration of the reciprocal 10% slowest reaction time (1/RT) (patients with NT1 [3]; 44 mg, Day 1 (placebo −0.49)): 0.51
PVT, mean change from baseline in the number of lapses (patients with NT1 [3]; 44 mg, Day 7 (placebo 11.8)): −12.8
PVT, mean change from baseline in mean duration of the reciprocal 10% slowest reaction time (1/RT) (patients with NT1 [3]; 44 mg, Day 7 (placebo −0.73)): −0.70

— patent publication US20220339143A1, “TAK-925 FOR USE IN TREATING NARCOLEPSY” (Takeda Pharmaceutical Company Limited, priority 2019, published 2022)
